# Test results: patent publication US20170036969A1, “NITRIFICATION INHIBITORS” (BASF SE, priority 2014, published 2017)
# Test system: nitrification in soil sampled fresh from a field (e.g. Limburgerhof)
# Experiment: Soil nitrification inhibition test (48 well plate, ammonium sulfate + NaClO3, colour reaction read at 540 nm)
# Settings: dose of 10 ppm, room temperature, up to 72 hrs
# Procedure: Soil was sampled fresh from a field (e.g. Limburgerhof), dried and sieved through a 500 μm sieve. Approximately 200 mg of soil were placed into each well of a 48 well plate. Compounds, or DMSO alone, were added at a concentration of 10 ppm, dissolved in 1% DMSO. 6 μmol ammonium sulfate was added per well as well as 4.8 mg NaClO3.
# Subsequently, the samples were incubated at room temperature for up to 72 hrs. After the incubation period 64 mg KCl were added and mixed. 25 μl of the supernatant were placed into a fresh plate and 260 μl of a color reaction solution (from Merck Nr 1.11799.0100) were added.
# Measurements were taken with a Tecan plate Reader at 540 nm wavelength.
# The inhibition in % is calculated by the equation [(a−b)/a]×100, wherein a is the nitrification rate in the presence of the control (which is assumed to be 100%), and b is the nitrification rate in the presence of the tested compound.
row,SMILES,Rating (inhibition; best rating obtained for a compound) [%]
1,C#CCOc1ccc(OCC#C)cc1,66
2,C#CCOc1cccc(C(O)C#C)c1 (stereo not shown),61
3,C#CCOc1ccc(Cl)cc1,59
4,C#CCOc1ccc(OC)cc1,58
5,C#CCOc1ccc(C(=O)N2CCOCC2)cc1,57
6,C#CCOc1cc(N)c(F)cc1Cl,62
7,C#CCOc1cc(NC(=S)N(N)CCO)c(F)cc1Cl,56
8,C#CCOc1ccc(NC(=O)N(C)C)cc1Cl,55
9,C#CCOc1ccc(C#N)cc1,53
10,C#CCOc1cc(NC=O)c(F)cc1Cl,48
